Test results from patent US9339503B2, “Tetrahydro-quinazolinone derivatives as TANK and PARP inhibitors” (MERCK PATENT GMBH, priority 2012, dated 2016).
pIC50: −log10 of the molar value.

Tests used:
Type in all cases: biochemical
[1] = target: T1, GST-tagged Tankyrase-1 (1023-1327 aa) (Homo sapiens, UniProt O95271); assay: Tankyrase 1 autoparsylation assay (HTRF enzyme assay)
T1 construct: GST-tagged Tankyrase-1 (1023-1327 aa)
Description: (§1) The autoparsylation assay was run in two steps: the enzymatic reaction in which GST-tagged Tankyrase-1, resp Tankyrase-2 transferred biotinylated ADP-ribose to itself from biotinylated NAD as co-substrate and the detection reaction where a time resolved FRET between cryptate labelled anti-GST bound to the GST tag of the enzyme and Xlent® labelled-streptavidin bound the biotin-parsylation residue was analysed. The autoparsylation activity was detectable directly via the increase in HTRF signal.
(§2) The autoparsylation assay was performed as 384-well HTRF® (Cisbio, Codolet, France) assay format in Greiner low volume nb 384-well microtiter plates and was used for high throughput screen. 250 nM GST-tagged Tankyrase-1 (1023-1327 aa), respectively about 250 nM GST-tagged Tankyrase-2 (873-1166 aa) and 5 μM bio-NAD (Biolog, Life science Inst., Bremen, Germany) as co-substrate were incubated in a total volume of 5 μl (50 mM HEPES, 4 mM Mg-chloride, 0.05% Pluronic F-68, 1.4 mM DTT, 0.5% DMSO, pH 7.7) in the absence or presence of the test compound (10 dilution concentrations) for 90 min at 30° C. The reaction was stopped by the addition of 1 μl 50 mM EDTA solution. 2 μl of the detection solution (1.6 μM SA-Xlent® (Cisbio, Codolet, France), 7.4 nM Anti-GST-K® (Eu-labelled anti-GST, Cisbio, Codolet, France) in 50 mM HEPES, 800 mM KF, 0.1% BSA, 20 mM EDTA, 0.1% CHAPS, pH 7.0) were added. After 1 h incubation at room temperature the HTRF was measured with an Envision multimode reader (Perkin Elmer LAS Germany GmbH) at excitation wavelength 340 nm (laser mode) and emission wavelengths 615 nm and 665 nm. The ratio of the emission signals was determined. The full value used was the inhibitor-free reaction. The pharmacological zero value used was XAV-939 (Tocris) in a final concentration of 5 μM. The inhibitory values (IC50) were determined using either the program Symyx Assay Explorer® or Condosseo® from GeneData.

[2] = target: T2, GST-tagged Tankyrase-2 (873-1166 aa) (Homo sapiens, UniProt Q9H2K2); assay: Tankyrase 2 autoparsylation assay (HTRF enzyme assay)
T2 construct: GST-tagged Tankyrase-2 (873-1166 aa)
Description: as §1, §2

[3] = target: T3, GST-tagged Tnks-2 (873-1166 aa) (Homo sapiens, UniProt Q9H2K2); assay: TNKS 2 activity ELISA (autoparsylation assay); conditions: read-out: IC50 tankyrase 2 (ELISA assay)
T3 construct: GST-tagged Tnks-2 (873-1166 aa, prepared in-house); made in house
Description: Biochemical Activity Testing of TNKS 1 and 2: Activity ELISA (Autoparsylation Assay)
For analysis of autoparsylation activity of TNKS 1 and 2 an activity ELISA was performed: In the first step GST tagged TNKS was captured on a Glutathione coated plate. Then the activity assay with biotinylated NAD was performed in the absence/presence of the compounds. During the enzymatic reaction GST tagged TNKS transferred biotinylated ADP-ribose to itself from biotinylated NAD as co-substrate. For the detection streptavidin-HRP conjugate was added that bound to the biotinylated TNKS and was thereby captured to the plates. The amount of biotinylated resp autoparsylated TNKS was detected with a luminescence substrate for HRP. The level of the luminescence signal correlated directly with the amount of autoparsylated TNKS and therefore with activity of TNKS.
The activity ELISA was performed in 384 well Glutathione coated microtiter plates (Express capture Glutathione coated plate, Biocat, Heidelberg, Germany). The plates were pre-equilibrated with PBS. Then the plates were incubated with 50 μl 20 ng/well GST-tagged Tnks-1 (1023-1327 aa, prepared in-house), respectively GST-tagged Tnks-2 (873-1166 aa, prepared in-house) in assay buffer (50 mM HEPES, 4 mM Mg-chloride, 0.05% Pluronic F-68, 2 mM DTT, pH 7.7) overnight at 4° C. The plates were washed 3 times with PBS-Tween-20. The wells were blocked by incubation at room temperature for 20 minutes with 50 μl blocking buffer (PBS, 0.05% Tween-20, 0.5% BSA). Afterwards the plates were washed 3 times with PBS-Tween-20. The enzymatic reaction was performed in 50 μl reaction solution (50 mM HEPES, 4 mM Mg-chloride, 0.05% Pluronic F-68, 1.4 mM DTT, 0.5% DMSO, pH 7.7) with 10 μM bio-NAD (Biolog, Life science Inst., Bremen, Germany) as co-substrate in the absence or presence of the test compound (10 dilution concentrations) for 1 hour at 30° C. The reaction was stopped by 3 times washing with PBS-Tween-20. For the detection 50 μl of 20 ng/μl Streptavidin, HRP conjugate (MoBiTec, Göttingen, Germany) in PBS/0.05% Tween-20/0.01% BSA were added and the plates were incubated for 30 minutes at room temperature. After three times washing with PBS-Tween-20 50 μl of SuperSignal ELISA Femto Maximum sensitivity substrate solution (ThermoFisherScientific (Pierce), Bonn, Germany) were added. Following a 1 minute incubation at room temperature luminescence signals were measured with an Envision multimode reader (Perkin Elmer LAS Germany GmbH) at 700 nm. The full value used was the inhibitor-free reaction. The pharmacological zero value used was XAV-939 (Tocris) in a final concentration of 5 μM. The inhibitory values (IC50) were determined using either the program Symyx Assay Explorer® or Condosseo® from GeneData.

T3 sequence (Q9H2K2 873-1166): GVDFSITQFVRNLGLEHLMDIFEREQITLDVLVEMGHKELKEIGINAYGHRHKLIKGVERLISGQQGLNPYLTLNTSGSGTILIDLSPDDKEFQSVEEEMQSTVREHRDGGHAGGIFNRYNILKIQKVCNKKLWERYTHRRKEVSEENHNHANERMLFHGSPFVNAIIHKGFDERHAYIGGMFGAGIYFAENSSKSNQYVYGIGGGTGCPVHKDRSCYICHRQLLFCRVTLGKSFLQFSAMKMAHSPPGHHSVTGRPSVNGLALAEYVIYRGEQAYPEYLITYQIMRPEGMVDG
T2 sequence (Q9H2K2 873-1166): as above
T1 sequence (O95271 1023-1327): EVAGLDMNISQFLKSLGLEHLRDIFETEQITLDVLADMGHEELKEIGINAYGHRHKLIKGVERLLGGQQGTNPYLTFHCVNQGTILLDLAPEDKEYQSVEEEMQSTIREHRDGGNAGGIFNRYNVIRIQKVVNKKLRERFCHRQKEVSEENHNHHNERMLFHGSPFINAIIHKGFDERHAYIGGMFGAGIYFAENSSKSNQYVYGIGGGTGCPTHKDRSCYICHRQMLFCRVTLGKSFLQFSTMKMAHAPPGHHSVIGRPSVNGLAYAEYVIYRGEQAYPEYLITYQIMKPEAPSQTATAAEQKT

## O=c1[nH]c(N2CCN(c3ccc(F)cc3)CC2)nc2c1CCCC2 [Compound A6, 2-[4-(4-Fluorophenyl)piperazin-1-yl]-5,6,7,8-tetrahydro-3H-quinazolin-4-one]
[1]
  pIC50: 5.52 to 6.52
[2]
  pIC50: 5.52 to 6.52
[3]
  pIC50: > 6.52

## COc1cccc(N2CCN(c3nc4c(c(=O)[nH]3)CCCC4)CC2)c1 [Compound A7, 2-[4-(3-Methoxyphenyl)piperazin-1-yl]-5,6,7,8-tetrahydro-3H-quinazolin-4-one]
[1]
  pIC50: > 6.52
[2]
  pIC50: 5.52 to 6.52
[3]
  pIC50: > 6.52

## N#Cc1ccccc1N1CCN(c2nc3c(c(=O)[nH]2)CCCC3)CC1 [Compound A33, 2-[4-(4-oxo-5,6,7,8-tetrahydro-3H-quinazolin-2-yl)piperazin-1-yl]benzonitrile]
[1]
  pIC50: > 6.52
[2]
  pIC50: 5.52 to 6.52
[3]
  pIC50: > 6.52

## COc1cc(F)ccc1N1CCN(c2nc3c(c(=O)[nH]2)CCCC3)CC1 [Compound A36, 2-[4-(4-fluoro-2-methoxy-phenyl)piperazin-1-yl]-5,6,7,8-tetrahydro-3H-quinazolin-4-one]
[1]
  pIC50: > 6.52
[2]
  pIC50: 5.52 to 6.52
[3]
  pIC50: > 6.52

## O=c1[nH]c(N2CCN(c3ccccc3Cl)CC2)nc2c1CCCC2 [Compound A9, 2-[4-(2-Chlorophenyl)piperazin-1-yl]-5,6,7,8-tetrahydro-3H-quinazolin-4-one]
[1]
  pIC50: > 6.52
[2]
  pIC50: 5.52 to 6.52
[3]
  pIC50: > 6.52

## COc1ccccc1N1CCN(c2nc3c(c(=O)[nH]2)CCCC3)CC1 [Compound A12, 2-[4-(2-Methoxyphenyl)piperazin-1-yl]-5,6,7,8-tetrahydro-3H-quinazolin-4-one]
[1]
  pIC50: > 6.52
[2]
  pIC50: 5.52 to 6.52
[3]
  pIC50: > 6.52

## COc1ccc(N2CCN(c3nc4c(c(=O)[nH]3)CCCC4)CC2)cc1 [Compound A3, 2-[4-(4-methoxy-phenyl)-piperazin-1-yl]-5,6,7,8-tetrahydro-3H-quinazolin-4-one]
[1]
  pIC50: 5.52 to 6.52
[2]
  pIC50: 5.52 to 6.52
[3]
  pIC50: > 6.52
